Experimental data from patent US20240279202A1 (NURIX THERAPEUTICS, INC., priority 2021, published 2024).

Target: T1, ITK (Homo sapiens, UniProt Q08881)
T1 sequence (Q08881 1-620): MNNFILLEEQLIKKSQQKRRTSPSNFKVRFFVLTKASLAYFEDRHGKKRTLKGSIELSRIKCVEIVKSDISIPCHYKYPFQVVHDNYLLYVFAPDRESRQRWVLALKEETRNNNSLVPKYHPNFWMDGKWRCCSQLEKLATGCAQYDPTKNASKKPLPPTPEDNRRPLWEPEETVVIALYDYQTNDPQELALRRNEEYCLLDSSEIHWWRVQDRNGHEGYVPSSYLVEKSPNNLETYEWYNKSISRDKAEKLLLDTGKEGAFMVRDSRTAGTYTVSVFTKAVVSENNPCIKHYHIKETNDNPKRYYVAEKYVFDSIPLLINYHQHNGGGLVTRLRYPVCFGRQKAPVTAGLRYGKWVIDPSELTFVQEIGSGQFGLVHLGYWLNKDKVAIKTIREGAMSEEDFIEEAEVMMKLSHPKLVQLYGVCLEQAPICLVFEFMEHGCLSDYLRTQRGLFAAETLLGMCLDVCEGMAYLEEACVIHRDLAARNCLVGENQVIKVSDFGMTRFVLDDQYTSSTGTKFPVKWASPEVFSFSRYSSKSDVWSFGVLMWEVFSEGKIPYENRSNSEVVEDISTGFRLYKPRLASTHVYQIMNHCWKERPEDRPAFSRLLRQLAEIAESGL
Assay: ITK degradation HiBiT assay
Type: cell-based
Set-up: expressed in transfected cells; host or cells: Molt4 (ATCC CRL-1552), monoclonal clone 1C10, engineered to carry the HiBiT tag
Details: 4 hrs; for Dmax: MOLT-4, C-terminal HiBiT-tagged Molt4 cells; for DC50: C-terminal HiBiT-tagged Molt4 cells
Description: Itk Degradation Hibit Assay
Compounds provided herein were assayed in vitro with ITK HiBit cell lines. Compound dilution series (11-point, 5 fold dilutions in DMSO, columns 2-12 with replicate in rows A/B, C/D, E/F, G,H at 2000× the final required concentrations were prepared in 96 well plates (Falcon, cat. no. 353077). Column 1, rows A-H were control DMSO. The 2000× solutions ranged from 2 mM to 1.024 nM (final assay concentration range 1 μM to […]). The 2000× solutions were added to cells in […], for a final DMSO concentration of 0.5% and final assay compound concentration of 1×. For the cells, C-terminal HiBiT-tagged Molt4 cells (ATCC CRL-1552, monoclonal cell line clone 1C10) were plated at 1×10^6 cells/mL, 100 μL/well ([…]) in complete RPMI (10% FBS, 1% L-glutamine). The cells were incubated with compound 10 and compound 17 for 4 hrs at […]/6% CO2.
Following incubation, 100 μL of complete Nano-Glo HiBiT Lytic Detection Reagent (Nano-Glo HiBiT Lytic Buffer with 1:50 Nano-Glo HiBiT Lytic Substrate and 1:100 LgBiT Protein; Promega cat. no. N3040) was added. Cells were further incubated for 10 min at room temperature (RT). Luminescence units (LU) were read on an EnVision plate reader (Perkin Elmer, 0.1 sec per well). Percent ITK remaining per sample was calculated as follows: […]
Using Graphpad Prism, % ITK remaining values were plotted as a function of compound concentration. To determine DC50 and Dmax values, resulting curves were fit to the Prism curve-fitting equation “log(inhibitor) vs response—Variable slope (four parameters)” (reported best fit value IC50 used as DC50). ITK was measured with antibody-based MSD (Meso-Scale Discovery) assays shown below.

Q: With CN(C(=O)CCC1CCN(c2ccc(C3CCC(=O)NC3=O)cn2)C1)c1ccc2cc(-c3n[nH]c4c3C[C@@H]3C(F)(F)[C@]3(C)C4)[nH]c2c1 (stereo partly drawn) [Compound 70, N-(2-((4aS,5aR)-5,5-difluoro-5a-methyl-1,4,4a,5,5a,6-hexahydrocyclopropa[f]indazol-3-yl)-1H-indol-6-yl)-3-(1-(5-(2,6-dioxopiperidin-3-yl)pyridin-2-yl)pyrrolidin-3-yl)-N-methylpropanamide] as the compound, how does the Dmax read?
A: 53%

Q: How did the DC50 turn out when C[C@@]12Cc3[nH]nc(C(=O)Nc4cnn(C5CN(CC6CCN(c7ccc(C8CCC(=O)NC8=O)cc7)CC6)C5)c4)c3C[C@@H]1C2(F)F (stereo partly drawn) [Compound 91, (4aS,5aR)-N-(1-(1-((1-(4-(2,6-dioxopiperidin-3-yl)phenyl)piperidin-4-yl)methyl)azetidin-3-yl)-1H-pyrazol-4-yl)-5,5-difluoro-5a-methyl-1,4,4a,5,5a,6-hexahydrocyclopropa[f]indazole-3-carboxamide] was run?
A: 0.24 nM

Q: And the Dmax?
A: 85%

Q: COc1cc(N2CCC(CN3CCN(C(=O)c4ccc5cc(-c6n[nH]c7c6CCC(C)(C)C7)[nH]c5c4)CC3)CC2)ccc1C1CCC(=O)NC1=O (stereo not shown) [Compound 184] was tested. Which Dmax did it give?
A: 70%

Q: What does the source list for C[C@@]12Cc3[nH]nc(-c4nc5ccc(C(=O)N6CCN(CC7CCN(c8ccc(C9CCC(=O)NC9=O)cc8)CC7)CC6)cc5[nH]4)c3C[C@@H]1C2(F)F (mixture of isomers) [Compound 227, (3RS)-3-(4-{4-[(4-{2-[(4aS,5aR)-5,5-difluoro-5a-methyl-1H,4H,4aH,6H-cyclopropa [f]indazol-3-yl]-3H-1,3-benzodiazole-5-carbonyl}piperazin-1-yl)methyl]piperidin-1-yl}phenyl)piperidine-2,6-dione]?
A: DC50: 0.6 nM; Dmax: 87%

Q: For C[C@@H]1CN(C(=O)c2ccc3cc(-c4n[nH]c5c4CCC(C)(C)C5)[nH]c3c2)CCN1CC1CCN(c2ccc(C3CCC(=O)NC3=O)cc2)CC1 (stereo partly shown) [Compound 156], which Dmax is on record?
A: 84%

Q: What does the source list for C[C@@]12Cc3[nH]nc(-c4cc5ccc(C(=O)N6CCN(CC7CCN(c8ccc(C(=O)N[C@H]9CCC(=O)NC9=O)nc8)CC7)CC6)cc5[nH]4)c3C[C@@H]1C2(F)F [Compound 139, 5-(4-((4-(2-((4aS,5aR)-5,5-difluoro-5a-methyl-1,4,4a,5,5a,6-hexahydrocyclopropa[f]indazol-3-yl)-1H-indole-6-carbonyl)piperazin-1-yl)methyl)piperidin-1-yl)-N—((S)-2,6-dioxopiperidin-3-yl)picolinamide]?
A: DC50: 0.8 nM; Dmax: 81%

Q: Which Dmax does the source give for CN(c1ccc2cc(-c3n[nH]c4c3C[C@@H]3C(F)(F)[C@]3(C)C4)[nH]c2c1)C(=O)[C@H]1C[C@@]2(CCN(c3ccc4c(c3)C(=O)N([C@H]3CCC(=O)NC3=O)C4=O)C2)C1 (racemic) [Compound 71a, (2r,4r)-N-[2-[(4aS,5aR)-5,5-difluoro-5a-methyl-1H,4H,4aH,6H-cyclopropa[f]indazol-3-yl]-1H-indol-6-yl]-6-[2-[(3RS)-2,6-dioxopiperidin-3-yl]-1,3-dioxoisoindol-5-yl]-N-methyl-6-azaspiro[3.4]octane-2-carboxamide] here?
A: 53%

Q: C[C@@]12Cc3[nH]nc(C(=O)Nc4ccc(C5CCN(CC6CCN(c7ccc(C8CCC(=O)NC8=O)cn7)CC6)CC5)cc4)c3C[C@@H]1C2(F)F (stereo partly drawn) [Compound 109, (4aS,5aR)-N-(4-(1-((1-(5-(2,6-dioxopiperidin-3-yl)pyridin-2-yl)piperidin-4-yl)methyl)piperidin-4-yl)phenyl)-5,5-difluoro-5a-methyl-1,4,4a,5,5a,6-hexahydrocyclopropa[f]indazole-3-carboxamide] was tested. Which DC50 did it give?
A: 0.73 nM

Q: What about the Dmax of the same compound?
A: 91%

Q: With C[C@@]12Cc3[nH]nc(C(=O)Nc4cnn([C@@H]5CCN(C[C@@H]6CCN(c7ccc(C8CCC(=O)NC8=O)cc7)C6)C[C@H]5F)c4)c3C[C@@H]1C2(F)F (stereo partly drawn) [Compound 101, (4aS,5aR)-N-(1-((3R,4R)-1-(((3S)-1-(4-(2,6-dioxopiperidin-3-yl)phenyl)pyrrolidin-3-yl)methyl)-3-fluoropiperidin-4-yl)-1H-pyrazol-4-yl)-5,5-difluoro-5a-methyl-1,4,4a,5,5a,6-hexahydrocyclopropa[f]indazole-3-carboxamide] as the compound, how does the DC50 read?
A: 1.1 nM

Q: What about the Dmax of the same compound?
A: 87%

Q: With C[C@@H]1CN(C(=O)c2ccc3cc(-c4n[nH]c5c4CCC(C)(C)C5)[nH]c3c2)CCN1CC1CCN(c2ccc(C3CCC(=O)NC3=O)cn2)CC1 (stereo partly drawn) [Compound 129, 3-(6-(4-(((R)-4-(2-(6,6-dimethyl-4,5,6,7-tetrahydro-1H-indazol-3-yl)-1H-indole-6-carbonyl)-2-methylpiperazin-1-yl)methyl)piperidin-1-yl)pyridin-3-yl)piperidine-2,6-dione] as the compound, how does the DC50 read?
A: 4.9 nM

Q: What about the Dmax of the same compound?
A: 81%

Q: Which results are given for C[C@@]12Cc3[nH]nc(C(=O)Nc4cnn([C@@H]5CCN(CC6CCN(c7ccc(C(=O)N[C@H]8CCC(=O)NC8=O)nc7)CC6)C[C@H]5F)c4)c3C[C@@H]1C2(F)F [Compound 94, (4aS,5aR)-N-(1-((3R,4R)-1-((1-(6-(((S)-2,6-dioxopiperidin-3-yl)carbamoyl)pyridin-3-yl)piperidin-4-yl)methyl)-3-fluoropiperidin-4-yl)-1H-pyrazol-4-yl)-5,5-difluoro-5a-methyl-1,4,4a,5,5a,6-hexahydrocyclopropa[f]indazole-3-carboxamide]?
A: DC50: 3.4 nM; Dmax: 83%

Q: How did the Dmax turn out when C[C@H]1CN(C(=O)c2ccc3cc(-c4n[nH]c5c4C[C@@H]4C(F)(F)[C@]4(C)C5)[nH]c3c2)CCN1CC1CCN(c2ccc(C3CCC(=O)NC3=O)cc2F)CC1 (mixture of isomers) [Compound 155] was run?
A: 84%

Q: Which results are given for CC1(C)CCc2c(-c3cc4cc(F)c(C(=O)N5CCN(CC6CCN(c7ccc(C8CCC(=O)NC8=O)nc7)CC6)CC5)cc4[nH]3)n[nH]c2C1 (stereo not shown) [Compound 216, 3-{5-[4-({4-[2-(6,6-dimethyl-1,4,5,7-tetrahydroindazol-3-yl)-5-fluoro-1H-indole-6-carbonyl]piperazin-1-yl}methyl)piperidin-1-yl]pyridin-2-yl}piperidine-2,6-dione]?
A: DC50: 0.06 nM; Dmax: 87%

Q: With C[C@@]12Cc3[nH]nc(C(=O)Nc4cnn(CC5CCN(C(=O)C6CCN(c7ccc(N8CCC(=O)NC8=O)cc7)CC6)CC5)c4)c3C[C@@H]1C2(F)F [Compound 172] as the compound, how does the Dmax read?
A: 75%

Q: How did the Dmax turn out when C[C@@H]1CN(C(=O)c2ccc3cc(-c4n[nH]c5c4C[C@@H]4C(F)(F)[C@]4(C)C5)[nH]c3c2)CCN1CC1CCN(c2ccc(C3CCC(=O)NC3=O)c(F)c2)CC1 (stereo partly shown) [Compound 160] was run?
A: 83%

Q: For C[C@H]1CN(C(=O)c2ccc3cc(-c4n[nH]c5c4C[C@@H]4C(F)(F)[C@]4(C)C5)[nH]c3c2)CCN1CC1CCN(c2ccc(C3CCC(=O)NC3=O)cc2)CC1 (mixture of isomers) [Compound 153], which Dmax is on record?
A: 80%

Q: With CC1(C)CCc2c(-c3cc4ccc(C(=O)N5CCN(CC6CCN(c7ncc(C8CCC(=O)NC8=O)cc7F)CC6)CC5)cc4[nH]3)n[nH]c2C1 (stereo not shown) [Compound 183] as the compound, how does the Dmax read?
A: 81%

Q: C[C@@]12Cc3[nH]nc(C(=O)Nc4cnn(C5CCN(CC6CCN(c7ccc(N8CCC(=O)NC8=O)cn7)CC6)CC5)c4)c3C[C@@H]1C2(F)F [Compound 113, (4aS,5aR)-N-{1-[1-({1-[5-(2,4-dioxo-1,3-diazinan-1-yl)pyridin-2-yl]piperidin-4-yl}methyl)piperidin-4-yl]-1H-pyrazol-4-yl}-5,5-difluoro-5a-methyl-1H,4H,4aH,5H,5aH,6H-cyclopropa[f]indazole-3-carboxamide] was tested. Which DC50 did it give?
A: 0.4 nM

Q: What about the Dmax of the same compound?
A: 80%

Q: With CC1(C)CCc2c(-c3cc4ccc(C(=O)N5CCN(CC6CCN(c7ncc(C8CCC(=O)NC8=O)cn7)CC6)CC5)cc4[nH]3)n[nH]c2C1 (stereo not shown) [Compound 187] as the compound, how does the Dmax read?
A: 70%
